Data taken from ChEMBL document CHEMBL1153762, “Novel, broad-spectrum anticonvulsants containing a sulfamide group: advancement of N-((benzo[b]thien-3-yl)methyl)sulfamide (JNJ-26990990) into human clinical studies” (J Med Chem, 2009).
The source made the active and inactive calls.

What was measured:
Mus musculus [1] = assay: Anticonvulsant activity against bicuculline-induced seizure in ip dosed CF1 mouse after 0.25 hrs; type: functional
Mus musculus [2] = assay: Anticonvulsant activity against maximal electroshock-induced seizure in po dosed CF1 mouse after 1 hr; type: functional
Mus musculus [3] = assay: Anticonvulsant activity against maximal electroshock-induced seizure in CD1 mouse at 300 mg/kg, po after 0.5 hrs; type: functional, organism-based; design: dose 300 mg/kg
Mus musculus [4] = assay: Anticonvulsant activity against maximal electroshock-induced seizure in CD1 mouse at 100 mg/kg, po after 2 hrs; type: functional, organism-based; design: dose 100 mg/kg
Mus musculus [5] = assay: Neurotoxicity in mouse assessed as motor impairment 400 mg/kg, ip by rotarod test; type: toxicity, organism-based; design: dose 400 mg/kg, route intraperitoneal; conditions: in vivo
Mus musculus [6] = assay: Anticonvulsant activity against maximal electroshock-induced seizure in CD1 mouse at 100 mg/kg, po after 0.5 hrs; type: functional, organism-based; design: dose 100 mg/kg
[7] = target: Sodium channel protein type 2 subunit alpha (Rattus norvegicus, UniProt P04775); assay: Inhibition of rat Nav1.2 channel expressed in chinese hamster CHL1610 cells at preconditioning pulse of -67 mV after 2 to 3 mins by whole-cell patch-clamp technique; type: cell-based
Sodium channel protein type 2 subunit alpha, sequence (P04775 whole entry): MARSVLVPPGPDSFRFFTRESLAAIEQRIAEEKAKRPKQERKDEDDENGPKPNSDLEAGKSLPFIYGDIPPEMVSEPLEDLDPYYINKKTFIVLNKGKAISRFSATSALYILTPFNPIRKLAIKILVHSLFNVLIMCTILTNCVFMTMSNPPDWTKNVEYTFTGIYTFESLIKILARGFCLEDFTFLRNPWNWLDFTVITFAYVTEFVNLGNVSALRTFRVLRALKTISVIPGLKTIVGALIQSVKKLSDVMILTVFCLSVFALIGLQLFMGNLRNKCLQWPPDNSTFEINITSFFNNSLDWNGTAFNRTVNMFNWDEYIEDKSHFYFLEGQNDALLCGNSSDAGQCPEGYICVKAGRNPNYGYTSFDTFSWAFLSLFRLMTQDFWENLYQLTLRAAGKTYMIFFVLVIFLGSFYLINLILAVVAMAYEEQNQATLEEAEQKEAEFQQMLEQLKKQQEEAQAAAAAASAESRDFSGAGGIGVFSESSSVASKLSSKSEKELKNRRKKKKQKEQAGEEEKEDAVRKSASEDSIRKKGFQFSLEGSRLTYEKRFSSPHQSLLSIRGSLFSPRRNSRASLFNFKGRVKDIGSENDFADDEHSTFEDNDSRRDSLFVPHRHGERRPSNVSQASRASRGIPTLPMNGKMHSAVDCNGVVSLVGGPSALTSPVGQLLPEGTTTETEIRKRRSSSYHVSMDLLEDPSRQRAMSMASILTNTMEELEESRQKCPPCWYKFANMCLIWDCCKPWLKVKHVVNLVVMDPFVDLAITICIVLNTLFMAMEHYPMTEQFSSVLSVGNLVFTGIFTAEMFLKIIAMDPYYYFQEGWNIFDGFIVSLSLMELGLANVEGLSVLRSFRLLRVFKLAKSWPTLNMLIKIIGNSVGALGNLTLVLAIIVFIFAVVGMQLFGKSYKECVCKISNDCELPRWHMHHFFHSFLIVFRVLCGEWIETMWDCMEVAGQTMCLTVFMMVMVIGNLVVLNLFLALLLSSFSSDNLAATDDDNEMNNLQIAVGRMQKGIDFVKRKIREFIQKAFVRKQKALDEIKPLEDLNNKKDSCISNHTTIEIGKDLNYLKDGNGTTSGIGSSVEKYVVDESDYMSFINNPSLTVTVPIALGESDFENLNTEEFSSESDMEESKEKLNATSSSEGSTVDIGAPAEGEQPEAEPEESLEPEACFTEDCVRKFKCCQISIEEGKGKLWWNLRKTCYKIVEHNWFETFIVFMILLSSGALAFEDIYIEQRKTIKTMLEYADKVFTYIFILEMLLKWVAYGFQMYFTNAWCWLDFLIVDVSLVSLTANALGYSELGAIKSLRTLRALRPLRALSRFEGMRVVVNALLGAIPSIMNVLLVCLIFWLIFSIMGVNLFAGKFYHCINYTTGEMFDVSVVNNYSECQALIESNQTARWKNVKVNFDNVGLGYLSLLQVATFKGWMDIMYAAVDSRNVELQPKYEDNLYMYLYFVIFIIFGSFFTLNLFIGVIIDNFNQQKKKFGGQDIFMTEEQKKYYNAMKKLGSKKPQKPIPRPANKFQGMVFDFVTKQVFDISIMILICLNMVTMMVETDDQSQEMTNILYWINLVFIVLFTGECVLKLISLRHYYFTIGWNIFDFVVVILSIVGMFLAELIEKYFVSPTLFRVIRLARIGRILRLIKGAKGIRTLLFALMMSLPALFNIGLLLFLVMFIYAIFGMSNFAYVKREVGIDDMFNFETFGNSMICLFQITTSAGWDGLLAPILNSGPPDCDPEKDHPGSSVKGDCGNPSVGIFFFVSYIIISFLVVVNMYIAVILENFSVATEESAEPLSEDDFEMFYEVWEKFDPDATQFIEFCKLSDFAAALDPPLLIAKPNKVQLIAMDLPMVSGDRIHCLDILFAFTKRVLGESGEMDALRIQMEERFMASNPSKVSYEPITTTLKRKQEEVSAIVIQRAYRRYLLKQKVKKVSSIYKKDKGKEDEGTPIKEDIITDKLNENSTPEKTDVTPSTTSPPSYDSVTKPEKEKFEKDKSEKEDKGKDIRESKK

Rattus norvegicus [8] = assay: Anticonvulsant activity against maximal electroshock-induced seizure in po dosed rat; type: functional
Mus musculus [9] = assay: Anticonvulsant activity against maximal electroshock-induced seizure in CD1 mouse at 300 mg/kg, po after 2 hrs; type: functional, organism-based; design: dose 300 mg/kg
Mus musculus [10] = assay: Anticonvulsant activity against pentylenetetrazole-induced seizure in ip dosed CF1 mouse assessed as increase in threshold of seizure twitch at TD50 administered 15 mins before pentylenetetrazole infusion; type: functional, organism-based
Mus musculus [11] = assay: Anticonvulsant activity against pentylenetetrazole-induced seizure in ip dosed CF1 mouse after 0.25 hrs; type: functional
Mus musculus [12] = assay: Anticonvulsant activity against pentylenetetrazole-induced seizure in CF1 mouse assessed as increase in seizure threshold for clonus at 107 mg/kg, ip administered 15 mins before pentylenetetrazole infusion; type: functional; conditions: route intraperitoneal
Mus musculus [13] = assay: Anticonvulsant activity against pentylenetetrazole-induced seizure in ip CF1 mouse assessed as increase in threshold of seizure twitch at ED50 administered 15 mins before pentylenetetrazole infusion; type: functional, organism-based
Mus musculus [14] = assay: Anticonvulsant activity against pentylenetetrazole-induced seizure in CF1 mouse assessed as increase in threshold of seizure twitch at 107 mg/kg, ip administered 15 mins before pentylenetetrazole infusion; type: functional; conditions: route intraperitoneal
Mus musculus [15] = assay: Anticonvulsant activity against audiogenic seizures in ip dosed AGS mouse assessed as inhibition of hindlimb tonic extension administered 1 hr prior to 11 kHz sound induction; type: functional
Rattus norvegicus [16] = assay: Anticonvulsant activity against maximal electroshock-induced seizure in po dosed Sprague-Dawley rat after 2 hrs; type: functional
Rattus norvegicus [17] = assay: Anticonvulsant activity against maximal electroshock-induced seizure in po dosed rat after 4 hrs; type: functional
Mus musculus [18] = assay: Anticonvulsant activity against pentylenetetrazole-induced seizure in ip dosed CF1 mouse assessed as increase in seizure threshold for clonus at TD50 administered 15 mins before pentylenetetrazole infusion; type: functional, organism-based
Mus musculus [19] = assay: Anticonvulsant activity against pentylenetetrazole-induced seizure in ip dosed CF1 mouse assessed as increase in seizure threshold for clonus at ED50 administered 15 mins before pentylenetetrazole infusion; type: functional, organism-based
Rattus norvegicus [20] = assay: Anticonvulsant activity against electric stimulation-induced pharmacoresistant limbic epilepsy in ip dosed Sprague-Dawley rat kindling model assessed as reduction of seizure severity and excitability administered 15 mins after last electric stimulation measured after 15 mins to 1 hr; type: functional; conditions: Limbic system
Rattus norvegicus [21] = assay: Anticonvulsant activity against electric stimulation-induced pharmacoresistant limbic epilepsy in Sprague-Dawley rat kindling model assessed as reduction of seizure severity and excitability at > 26 mg/kg, ip administered 15 mins after last electric stimulation; type: functional, organism-based; design: dose 26 mg/kg; conditions: Limbic system
Mus musculus [22] = assay: Anticonvulsant activity against picrotoxin-induced seizure in ip dosed CF1 mouse after 0.25 hrs; type: functional
Rattus norvegicus [23] = assay: Anticonvulsant activity against electric stimulation-induced pharmacoresistant limbic epilepsy in Sprague-Dawley rat kindling model assessed as reduction of seizure severity and excitability at > 300 mg/kg, ip administered 15 mins after last electric stimulation; type: functional, organism-based; design: dose 300 mg/kg; conditions: Limbic system
Carbonic anhydrase 2 [24] = target: T1, Carbonic anhydrase 2 (Homo sapiens, UniProt P00918); assay: Inhibition of human carbonic anhydrase 2 by fluorimetric assay
Carbonic anhydrase 2 [25] = target: T1, Carbonic anhydrase 2
Description: Inhibition of human carbonic anhydrase 2 by CO2 hydration assay

[26] = target: Sodium channel protein type 2 subunit alpha (Rattus norvegicus) (UniProt P04775); assay: Inhibition of rat Nav1.2 channel expressed in chinese hamster CHL1610 cells at preconditioning pulse of -107 to -67 mV up to 300 uM after 2 to 3 mins by whole-cell patch-clamp technique; type: cell-based
Sodium channel protein type 2 subunit alpha (Rattus norvegicus), sequence (P04775 whole entry, looked up): as the sequence (P04775 whole entry) above

Mus musculus [27] = assay: Anticonvulsant activity against maximal electroshock-induced seizure in po dosed CD1 mouse after 0.5 hrs; type: functional
Mus musculus [28] = assay: Anticonvulsant activity against maximal electroshock-induced seizure in CD1 mouse at 300 mg/kg, po after 4 hrs; type: functional, organism-based; design: dose 300 mg/kg
Mus musculus [29] = assay: Anticonvulsant activity against maximal electroshock-induced seizure in CD1 mouse at 100 to 300 mg/kg, po after 0.5 to 8 hrs; type: functional, organism-based
Carbonic anhydrase 2 [30] = target: T1, Carbonic anhydrase 2; assay: Inhibition of human carbonic anhydrase 2 at 100 uM by CO2 hydration assay
[31] = Mus musculus, CF1, po, 1 h, read-out: ED50

## CC[C@@H](C(N)=O)N1CCCC1=O
Mus musculus [1]; Mus musculus, CF1, ip, 0.25 h, read-out: ED50
  ED50: > 540 mg/kg

## NS(=O)(=O)NCc1coc2ccccc12
Mus musculus [2]; [31]
  ED50: > 400 mg/kg
Mus musculus [3]
  Activity: Active
Mus musculus [4]
  Activity: inactive
Mus musculus [5]
  Activity: Non-toxic
Mus musculus [6]
  Activity: inactive

## CC1(C)O[C@@H]2[C@@H](CO[C@@]3(COS(N)(=O)=O)OC(C)(C)O[C@@H]23)O1 [TOPIRAMATE]
[7]
  IC50: 97 µM
Rattus norvegicus [8]
  ED50: 6.6 mg/kg
Mus musculus [9]
  Activity: inactive
Mus musculus [2]
  ED50: 43.8 mg/kg
Mus musculus [10]
  Activity: inactive
Mus musculus [11]
  ED50: >500 mg/kg
Mus musculus [12]
  Activity: 0%
Mus musculus [13]
  Activity: inactive
Mus musculus [14]
  Activity: 0%
Mus musculus [15]
  ED50: 4.2 mg/kg
Rattus norvegicus [16]
  ED50: 6.6 mg/kg
Rattus norvegicus [17]
  ED50: 53.5 mg/kg
Mus musculus [1]
  ED50: >500 mg/kg
Mus musculus [18]
  Activity: inactive
Mus musculus [19]
  Activity: inactive

## Cn1cc(CNS(N)(=O)=O)c2ccccc21
Mus musculus [2]; [31]
  ED50: 345 mg/kg
Mus musculus [3]
  Activity: Active
Mus musculus [4]
  Activity: inactive
Mus musculus [6]
  Activity: inactive

## Nc1nnc(-c2cccc(Cl)c2Cl)c(N)n1 [LAMOTRIGINE]
[7]
  IC50: 35 µM

## O=C1NC(=O)C(c2ccccc2)(c2ccccc2)N1 [PHENYTOIN]
[7]
  IC50: 22 µM
Rattus norvegicus [20]
  Activity: Active

## NC(=O)N1c2ccccc2C=Cc2ccccc21
Rattus norvegicus [21]
  Activity: Active

## CCCC(CCC)C(=O)O [VALPROIC ACID]
Mus musculus [22]
  ED50: > 200 mg/kg
Rattus norvegicus [23]
  Activity: Active

## Cc1oc2ccccc2c1CNS(N)(=O)=O
Mus musculus [4]
  Activity: inactive

## CCC1(C)CC(=O)NC1=O (stereo not drawn)
Rattus norvegicus [20]
  Activity: inactive

## NS(=O)(=O)NCc1csc2ccc(Br)cc12
Carbonic anhydrase 2 [24]
  IC50: 100 µM

## NS(=O)(=O)NCc1cccc2ccccc12
Mus musculus [2]; [31]
  ED50: 123 mg/kg

## CC(NS(N)(=O)=O)c1csc2ccccc12 (racemic)
Carbonic anhydrase 2 [25]
  IC50: 130 µM

## NCC1(CC(=O)O)CCCCC1
[26]
  inhibition: inactive

## NS(=O)(=O)NCc1csc2ccc(Cl)cc12
Carbonic anhydrase 2 [24]
  IC50: 8.4 µM
Mus musculus [3]
  Activity: inactive
Mus musculus [4]
  Activity: inactive
Mus musculus [6]
  Activity: inactive

## NS(=O)(=O)NCc1csc2ccc(F)cc12
Mus musculus [2]; [31]
  ED50: 231 mg/kg
Mus musculus [6]
  Activity: inactive

## NS(=O)(=O)NCc1ccccc1
Mus musculus [3]
  Activity: Active
Mus musculus [27]
  ED50: 440 mg/kg
Mus musculus [28]
  Activity: Active
Mus musculus [6]
  Activity: Active

## NS(=O)(=O)NCc1c[nH]c2ccccc12
Carbonic anhydrase 2 [24]
  IC50: 300 µM
Mus musculus [4]
  Activity: inactive

## CCCCNS(N)(=O)=O
Mus musculus [29]
  Activity: inactive

## Cc1ccc2scc(CNS(N)(=O)=O)c2c1
Mus musculus [2]; [31]
  ED50: > 400 mg/kg
Carbonic anhydrase 2 [24]
  IC50: 45 µM
Carbonic anhydrase 2 [30]
  inhibition: 44%
